Source: patent EP0330017A2, “Use of thiazoles for increasing animal performance” (BOEHRINGER INGELHEIM VETMEDICA GMBH, priority 1988, dated 1989)

Assays:
[1] = Performance promotion in pigs, 33-day feeding trial (weight gain, feed consumption, carcass quality); type: in vivo, Schweinen; details: 8 ppm test compound in feed, 33-day trial, 10 pigs
From the text: (§1) Die leistungsfördernde Wirkung der vorstehend erwähnten Thiazole wurde beispielsweise an der Verbindung N-[2-(4-Carboxymethoxyphenyl)-1-methylethenyl]-2-(2-trifluormethyl-thiazol-4-yl)morpholin wie folgt geprüft:
3.) 2 Gruppen von 10 Schweinen, wobei jedes Tier einzeln gefüttert wurde, erhielten identisches Futter und Wasser ad libitum. Die eine Gruppe erhielt zusätzlich 8 ppm der vorstehend erwähnten Verbindung. Während der 33-tägigen Versuchsperiode wurden Gewichtszunahme, Futterverbrauch der Schlachtkörperqualität gegenüber der Kontrollgruppe bestimmt.

[2] = Performance promotion in lambs, 33-day feeding trial (weight gain, feed consumption); type: in vivo, Lämmern; details: 33-day trial
From the text: as §1
1.) 2 Gruppen von 7 Lämmern, wobei jedes Tier einzeln gehalten wurde, erhielten identisches Futter und Wasser ad libitum. Die eine Gruppe erhielt zusätzlich 8 ppm der vorstehend erwähnten Verbindung. Während der 33-tägigen Versuchsperiode wurden Gewichtszunahme und Futterverbrauch gegenüber der Kontrollgruppe bestimmt.

[3] = Performance promotion in lambs, 42-day feeding trial (weight gain, carcass quality); type: in vivo, Lämmern; details: 42-day trial
From the text: as §1
2.) 2 Gruppen von 12 Lämmern erhielten identisches Futter und Wasser ad libitum. Die eine Gruppe erhielt zusätzlich 8 ppm der vorstehend erwähnten Verbindung. Während der 42-tä-gigen Versuchsperiode wurden Gewichtszunahme und Parameter der Schlachtkörperqualität gegenüber der Kontrolle bestimmt.

[4] = 8 ppm test compound in feed, 7 lambs
[5] = 8 ppm test compound in feed, 12 lambs

CC(Cc1ccc(OCC(=O)O)cc1)N1CCOC(c2csc(C(F)(F)F)n2)C1 (centres unmarked) [Testverbindung]
Ausschlachtung [1]: 77,2%
Endgewicht [1]: 97,6 kg
Futterverwertung (kg Futter/kg Zunahme) [1]: 3,17 kg Futter/kg Zunahme
Gewichte verschiedener Teilstücke: Rippe [1]: 7,25 kg
Gewichte verschiedener Teilstücke: Schinken [1]: 7,46 kg
Gewichte verschiedener Teilstücke: Schulter [1]: 9,48 kg
Gewichtszunahme [1]: 754,0 g/Tag
Rückenmuskelfläche [1]: 32,3 cm²
Endgewicht [2, 4]: 43,9 kg
Futteraufnahme [2, 4]: 1598,0 g/Tag
Futterverwertung (kg Zunahme/kg Futter) [2, 4]: 0,161 kg Zunahme/kg Futter
Gewichtszunahme [2, 4]: 258,0 g/Tag
Futteraufnahme, Abweichung zur Kontrolle ([2]; 8 ppm vs 0 ppm control, lambs): +4,4%
Futterverwertung (kg Zunahme/kg Futter), Abweichung zur Kontrolle ([2]; 8 ppm vs 0 ppm control, lambs): +50,5%
Gewichtszunahme, Abweichung zur Kontrolle ([2]; 8 ppm vs 0 ppm control, lambs): +57,3%
Endgewicht [3, 5]: 46,6 kg
Gewicht des musculus longissimus dorsi [3, 5]: 324,0 g
Gewichtszunahme [3, 5]: 320,0 g/Tag
Rückenfettdicke [3, 5]: 1,78 mm
Schlachtkörperzusammensetzung: Fett [3, 5]: 16,1%
Schlachtkörperzusammensetzung: Fleisch [3, 5]: 69,1%
Schlachtkörperzusammensetzung: Knochen [3, 5]: 14,8%
Gewicht des musculus longissimus dorsi, Abweichung zur Kontrolle ([3]; 8 ppm vs 0 ppm control, lambs): +6,9%
Schlachtkörperzusammensetzung: Fett, Abweichung zur Kontrolle ([3]; 8 ppm vs 0 ppm control, lambs): -6,9%
Schlachtkörperzusammensetzung: Fleisch, Abweichung zur Kontrolle ([3]; 8 ppm vs 0 ppm control, lambs): +1,2%
Schlachtkörperzusammensetzung: Knochen, Abweichung zur Kontrolle ([3]; 8 ppm vs 0 ppm control, lambs): +2,8%
